In patent publication US9302999B2, “Substituted triazoles as herbicides” (E. I. DU PONT DE NEMOURS AND COMPANY, priority 2012, dated 2016):

How the values were obtained:
Type in all cases: in vivo
[1] = tested on: wheat, winter (winter wheat, Triticum aestivum); test: Test D pre-/postemergence: wheat, winter
Summary of the method: (§1)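 Pre- and postemergence herbicide screen. Soil for pre: silt loam; post medium: peat moss, vermiculite, wetting agent, starter nutrients. Plant stage at post: 1- to 4-leaf. Readout: visual % control, 14–21 days.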

[2] = tested on: crabgrass, Brazil (Brazilian crabgrass, Digitaria horizontalis); test: Test F pre-/postemergence: crabgrass, Brazil; settings: Postemergence, scale 0 to 100
Summary of the method: (§2)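 Preemergence treatment of seeds sown in silt loam soil, and postemergence treatment of plants 2–18 cm tall (1- to 4-leaf stage), with compounds in non-phytotoxic solvent plus surfactant. Greenhouse 14–21 days, then visual rating versus controls on 0–100 scale (100 = complete control).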

[3] = tested on: oilseed rape (Brassica napus); test: Test D pre-/postemergence: oilseed rape
Summary of the method: as §1

[4] = tested on: morningglory (Ipomoea coccinea); test: Test F pre-/postemergence: morningglory; settings: Preemergence
Summary of the method: as §2

[5] = tested on: foxtail, green (green foxtail, Setaria viridis); test: Test D pre-/postemergence: foxtail, green
Summary of the method: as §1

[6] = tested on: cocklebur (common cocklebur, Xanthium strumarium); test: Test F pre-/postemergence: cocklebur; settings: Preemergence
Summary of the method: as §2

[7] = tested on: mustard, wild (wild mustard, Sinapis arvensis); test: Test D pre-/postemergence: mustard, wild
Summary of the method: as §1

kochia (Kochia scoparia) = test: Test F pre-/postemergence: kochia; settings: Preemergence
Summary of the method: as §2

[8] = tested on: oat, wild (wild oat, Avena fatua); test: Test D pre-/postemergence: oat, wild
Summary of the method: as §1

[9] = Postemergence, 31 g ai/ha, scale 0 to 100 (0 no effect, 100 complete control)
[10] = Postemergence, 62 g ai/ha, scale 0 to 100 (0 no effect, 100 complete control)
[11] = Postemergence, 125 g ai/ha, scale 0 to 100, 0 no effect, 100 complete control
[12] = Postemergence, 16 g ai/ha, scale 0 to 100
[13] = Preemergence, 16 g ai/ha, scale 0 to 100, 0 no effect, 100 complete control
[14] = Preemergence, 31 g ai/ha, scale 0 to 100, 0 no effect, 100 complete control
[15] = Preemergence, 62 g ai/ha, scale 0 to 100
[16] = Preemergence, 125 g ai/ha, scale 0 to 100
[17] = 8 g ai/ha, scale 0 to 100, 0 no effect, 100 complete control
[18] = 16 g ai/ha, scale 0 to 100, 0 no effect, 100 complete control
[19] = 31 g ai/ha, scale 0 to 100, 0 no effect, 100 complete control

CCOc1nn(-c2ccc(F)cc2)nc1Cc1ccnc(C(F)(F)F)c1 [Compound 196, 4-[[5-ethoxy-2-(4-fluorophenyl)-2H-1,2,3-triazol-4-yl]methyl]-2-(trifluoromethyl)pyridine]
Plant response rating: Wheat, Winter [1, 9]: 20 | Plant response rating: Wheat, Winter [1, 10]: 25 | Plant response rating: Wheat, Winter [1, 11]: 35 | Plant response rating, Wheat, Winter [1, 12]: 15 | Plant response rating, Wheat, Winter [1, 13]: 5 | Plant response rating, Wheat, Winter [1, 14]: 5 | Plant response rating, Wheat, Winter [1, 15]: 10 | Plant response rating, Wheat, Winter [1, 16]: 15 | Plant response rating, Crabgrass, Brazil ([2]; 8 g ai/ha): 60 | Plant response rating, Crabgrass, Brazil ([2]; 16 g ai/ha): 75 | Plant response rating, Crabgrass, Brazil ([2]; 31 g ai/ha): 85 | Plant response rating, Crabgrass, Brazil ([2]; 62 g ai/ha): 95 | Plant response rating, Crabgrass, Brazil ([2]; 125 g ai/ha): 95 | Plant response rating: Oilseed Rape [3, 9]: 100 | Plant response rating: Oilseed Rape [3, 10]: 100 | Plant response rating: Oilseed Rape [3, 11]: 100 | Plant response rating, Oilseed Rape [3, 12]: 80 | Plant response rating, Oilseed Rape [3, 13]: 5 | Plant response rating, Oilseed Rape [3, 14]: 15 | Plant response rating, Oilseed Rape [3, 15]: 100 | Plant response rating, Oilseed Rape [3, 16]: 100 | Plant response rating, Morningglory [4, 17]: 0 | Plant response rating, Morningglory [4, 18]: 30 | Plant response rating, Morningglory [4, 19]: 30 | Plant response rating, Morningglory ([4]; 125 g ai/ha, scale 0 to 100): 70 | Plant response rating: Foxtail, Green [5, 9]: 80 | Plant response rating: Foxtail, Green [5, 10]: 85 | Plant response rating: Foxtail, Green [5, 11]: 95 | Plant response rating, Foxtail, Green [5, 12]: 55 | Plant response rating, Foxtail, Green [5, 13]: 60 | Plant response rating, Foxtail, Green [5, 14]: 60 | Plant response rating, Foxtail, Green [5, 15]: 75 | Plant response rating, Foxtail, Green [5, 16]: 100 | Plant response rating, Cocklebur [6, 19]: 0 | Plant response rating, Cocklebur ([6]; 62 g ai/ha, scale 0 to 100): 0 | Plant response rating, Cocklebur ([6]; 125 g ai/ha, scale 0 to 100): 0 | Plant response rating: Mustard, Wild [7, 9]: 100 | Plant response rating: Mustard, Wild [7, 10]: 100 | Plant response rating: Mustard, Wild [7, 11]: 100 | Plant response rating, Mustard, Wild [7, 12]: 100 | Plant response rating, Mustard, Wild [7, 13]: 35 | Plant response rating, Mustard, Wild [7, 14]: 95 | Plant response rating, Mustard, Wild [7, 15]: 100 | Plant response rating, Mustard, Wild [7, 16]: 100 | Plant response rating, Kochia (kochia (Kochia scoparia); [17]): 5 | Plant response rating, Kochia (kochia (Kochia scoparia); [18]): 5 | Plant response rating, Kochia (kochia (Kochia scoparia); [19]): 10 | Plant response rating, Kochia (kochia (Kochia scoparia); 62 g ai/ha, scale 0 to 100): 100 | Plant response rating, Kochia (kochia (Kochia scoparia); 125 g ai/ha, scale 0 to 100): 100 | Plant response rating: Oat, Wild [8, 9]: 50 | Plant response rating: Oat, Wild [8, 10]: 45 | Plant response rating: Oat, Wild [8, 11]: 70 | Plant response rating, Oat, Wild [8, 12]: 15 | Plant response rating, Oat, Wild [8, 13]: 25 | Plant response rating, Oat, Wild [8, 14]: 30 | Plant response rating, Oat, Wild [8, 15]: 75 | Plant response rating, Oat, Wild [8, 16]: 100
